Experimental findings from US5103018A, “Mitomycin derivatives” (Kyowa Hakko Kogyo Kabushiki Kaisha, priority 1986, dated 1992) are described below.

For one data set, the system named is Sarcoma 180 solid tumour. Nature of the data set: animal or person. To be noted: for ED50: Mus musculus, Sarcoma-180, ip, 168 h, read-out: ED50 ip. The data set is classed as in vivo, mice (ddy strain). From the text:
(§1) Certain compounds were selected from Compounds I. The following Table 4 indicates anti-tumour activity against Sarcoma 180 solid tumour (ED50), acute toxicity (LD50) and effects on the peripheral leucocytes (WBC4000) of each compound.
(1) Effect against Sarcoma 180 solid tumour:
5×10^6 cells of Sarcoma 180 solid tumour cells were abdominally implanted into male mice of ddy strain. 7 days after this, ascites cells were sampled. The cells were washed once with a sterilized physiological solution of sodium chloride and were used to prepare a cell suspension containing 5×10^7 cells per ml. On each occasion, 0.1 ml of the cell suspension was subcutaneously implanted into the right armpit of a male mouse (ddy strain; body weight 20±2 g). 24 hours after the implantation of the tumour cells, the test compound which was dissolved in a physiological solution of sodium chloride with or without addition of Tween 80 was abdominally administered to each mouse of a group consisting of 5 animals at a does of 0.1-0.2 ml. The anti-tumour activity was determined as follows:
7 days after the implantation, the major axis (a) and the minor axis (b) of the tumour were measured to calculate a value of "a×b^2 /2" which corresponds to the volume of the tumour. The anti-tumour activity was expressed by T/C viz. the ratio of the volume of the tumours (T) of the group of animals administered with the test compound to the corresponding volume of tumours (C) of the untreated animals.
(2) Determination of ED50 :
The term ED50 denotes the administered amount needed for reducing the volume of Sarcoma 180 solid tumours in the animals to 50% on the basis of the corresponding volume of Sarcoma 180 solid tumours in control (untreated) animals.
On graph paper, T/C was indicated by an arithmetic scale on the longitudinal axis and the administered amount of test compound was indicated by a logarithmic scale on the lateral axis.

A further data set can be described thus: Acute toxicity. It counts as in vivo, mice (ddy). Particulars: mouse, in vivo, ip; for LD50 at 336 h: ddy mice, single i.p., 14 days, Behren Korber's method; for selectivity ratio: read-out: (C.I.)* = (LD50/ED50)/[(LD50/ED50) of MMC1]. The protocol: as §1
Each animal of the test group consisting of 5 ddy mice was once administered (i.p.) with a test compound. […] The LD50 was determined by Behren Korber's method.

A short description of another data set: in vivo. It counts as in vivo, mice (ddy strain). To be noted: mouse, in vivo, ip; read-out: (WBC4000/ED50)* = (WBC4000/ED50)/[(WBC4000/ED50) of MMC1]. The protocol:
as §1
(4) Effect upon the number of the peripheral leucocytes:
Sarcoma 180 solid tumour cells (5×10^6) were subcutaneously implanted into the right armpit of each mouse (body weight 20±2 g) of a group consisting of 5 male mice (ddy strain). 24 hours after implantation,a test compound was abdominally administered to each mouse. 4 days later, blood (each 0.02 ml) was collected from the suborbital plexus vein of each tumour-carrying mouse. The collected sample of blood was dispersed in 9.98 ml of Cell-kit Seven solution. One drop of saponin solution was added to the sample to dissolve erythrocytes and then a microcell counter was used to measure the number of leucocytes. On graph paper, the number of leucocytes was indicated on the y-axis by an arithmetic scale and the does of the test compound was indicated on the x-axis by a logarithmic scale.
The relationship between the number of peripheral leucocytes and the dosage of the test compound was plotted to obtain WBC4000 viz. the dosage corresponding to […] per mm^3 (about half of the number of leucocytes of normal mice).

Some results are limits rather than exact numbers.

The term ED50 denotes the dose at which the effect has come halfway, by size or by number of responders. For orientation: LD50 means the dose expected to kill half of the subjects tested. In the case of `CC1=C(NCCSSCCNC(=O)CC[C@@H](N)C(=O)O)C(=O)C2=C(C1=O)N1C[C@H]3[C@H](N3C)[C@]1(O)[C@H]2COC(N)=O` (stereo partly drawn) [Compound 11, 7-N-[2-[[2-(N^5 -D-glutamino)ethyl]dithio]ethyl]mitomycin D], the ED50 in the data set on Sarcoma 180 solid tumour worked out at 16.9 mg/kg. Besides, in the data set “Acute toxicity”, the LD50 at 336 h turned out to be 75 mg/kg and the selectivity ratio was found to be 1.59. In the data set “in vivo”, the selectivity ratio is 1.64.
In the same order, the values of `CC1=C(NCCSSCCC(=O)N[C@@H](CCCN)C(=O)O)C(=O)C2=C(C1=O)N1C[C@H]3[C@H](N3C)[C@]1(O)[C@H]2COC(N)=O` (stereo partly drawn) [Compound 24, 7-N-[2-[[2-[[(1S)-4-amino-1-carboxybutyl]carbamoyl]ethyl]dithio]ethyl]mitomycin D] are 31.2 mg/kg, above 100 mg/kg, above 1.53 and 2.02.
In the case of `CC1=C(NCCSSCCNC(=O)C[C@H](N)C(=O)O)C(=O)C2=C(C1=O)N1C[C@H]3[C@H](N3C)[C@]1(O)[C@H]2COC(N)=O` (stereo partly drawn) [Compound 10, 7-N-[2-[[2-(N^4 -L-asparagino)ethyl]dithio]ethyl]mitomycin D], in the data set on Sarcoma 180 solid tumour, the ED50 is 13 mg/kg. In the data set “Acute toxicity”, this compound showed an LD50 at 336 h of 75 mg/kg. Further, the figures for the selectivity ratio in the data set “Acute toxicity” and in the data set “in vivo” were 2.19 and 2.5, respectively.
Consider `CC1=C(NCCSSCc2c[nH]c(=O)[nH]c2=O)C(=O)C2=C(C1=O)N1C[C@H]3[C@H](N3C)[C@]1(O)[C@H]2COC(N)=O` (stereo partly shown) [Compound 38, 7-N-[2-[[(2,4-dioxopyrimidin-5-yl)methyl]dithio]ethyl]mitomycin D], for which the ED50 in the data set with Sarcoma 180 solid tumour came out at 24.5 mg/kg. The compound further came in with an LD50 at 336 h in “Acute toxicity” above 150 mg/kg. For the same compound, the results for the selectivity ratio in the data set “Acute toxicity” and in the data set “in vivo” were above 2.26 and above 8.71, respectively.
“7-N-[2-[[2-[[(1S)-5-amino-1-carboxypentyl]carbamoyl]ethyl]dithio]ethyl]mitomycin C [Compound 23]” returned an ED50 ip in the data set on Sarcoma 180 solid tumour (ddy mice, i.p. 24 h after implantation, 50% reduction of tumour volume at day 7) of 6.2 mg/kg.
Consider `CC1=C(NCCSSCCNC(=O)C(F)(F)F)C(=O)C2=C(C1=O)N1C[C@H]3[C@H](N3C)[C@]1(O)[C@H]2COC(N)=O` (stereo partly shown) [Compound 20, 7-N-[2-[(2-trifluoroacetamidoethyl)dithio]ethyl]mitomycin D], for which the ED50 in the data set on Sarcoma 180 solid tumour came out at 11.6 mg/kg. In the data set “Acute toxicity”, the LD50 at 336 h worked out at 30 mg/kg and the selectivity ratio was 0.93. The selectivity ratio in “in vivo” was 4.4.
Take `CO[C@@]12[C@H](COC(N)=O)C3=C(C(=O)C(C)=C(NCCSSCc4c[nH]c(=O)[nH]c4=O)C3=O)N1C[C@@H]1N[C@@H]12` [Compound 37, 7-N-[2-[[(2,4-dioxopyrimidin-5-yl)methyl]dithio]ethyl]mitomycin C]: the ED50 with Sarcoma 180 solid tumour was 16.4 mg/kg.
In the case of `CC1=C(NCCSSCCNC=O)C(=O)C2=C(C1=O)N1C[C@H]3[C@H](N3C)[C@]1(O)[C@H]2COC(N)=O` (stereo partly shown) [Compound 18, 7-N-[2-[(2-formamidoethyl)dithio]ethyl]mitomycin D], the ED50 in the data set with Sarcoma 180 solid tumour was 10.6 mg/kg. In “Acute toxicity”, the LD50 at 336 h came out at 52.5 mg/kg and the selectivity ratio stood at 1.94. Also, in the data set “in vivo”, the selectivity ratio was found to be 3.89.
In the same order, the values of `CC1=C(NCCSSCCNC(=O)[C@@H]2CCC(=O)N2)C(=O)C2=C(C1=O)N1C[C@H]3[C@H](N3C)[C@]1(O)[C@H]2COC(N)=O` (stereo partly drawn) [Compound 12, 7-N-[2-[[2-(L-pyroglutamylamino)ethyl]dithio]ethyl]mitomycin D] are 18.4 mg/kg, 75 mg/kg, 1.8 and 5.57.
In the same order, the values of `CO[C@@]12[C@H](COC(N)=O)C3=C(C(=O)C(C)=C(NCCSSCCC(=O)NCCc4ccc(O)c(O)c4)C3=O)N1C[C@@H]1N[C@@H]12` [Compound 31, 7-N-[2-[[2-[[2-(3,4-dihydroxyphenyl)ethyl]carbamoyl]ethyl]dithio]ethyl]mitomycin C] are 7.1 mg/kg, 26.3 mg/kg, 1.15 and 2.28.
Consider `CCOC(=O)CNC(=O)CCSSCCNC1=C(C)C(=O)C2=C(C1=O)[C@@H](COC(N)=O)[C@@]1(OC)[C@H]3N[C@H]3CN21` [Compound 29, 7-N-[2-[[2-[[(ethoxycarbonyl)methyl]carbamoyl]ethyl]dithio]ethyl]mitomycin C], for which, in the data set with Sarcoma 180 solid tumour, the ED50 was 9.4 mg/kg. Also, in the data set “Acute toxicity”, the LD50 at 336 h stood at 33.8 mg/kg and the selectivity ratio was found to be 1.77. Besides, in the data set “in vivo”, the selectivity ratio amounted to 2.9.
For the compound `CC1=C(NCCSSCCC(=O)N[C@@H](CCCCN)C(=O)O)C(=O)C2=C(C1=O)N1C[C@H]3[C@H](N3C)[C@]1(O)[C@H]2COC(N)=O` (stereo partly drawn) [Compound 25, 7-N-[2-[[2-[[(1S)-5-amino-1-carboxypentyl]carbamoyl]ethyl]dithio]ethyl]mitomycin D], in the data set with Sarcoma 180 solid tumour, the ED50 is 46.6 mg/kg. In “Acute toxicity”, the LD50 at 336 h is above 100 mg/kg and the selectivity ratio was above 1.02. Also, in “in vivo”, the selectivity ratio stood at 1.59.
In the case of `CO[C@@]12[C@H](COC(N)=O)C3=C(C(=O)C(C)=C(NCCSSCCNC(=O)C(F)(F)F)C3=O)N1C[C@@H]1N[C@@H]12` [Compound 19, 7-N-[2-[(2-trifluoroacetamidoethyl)dithio]ethyl]mitomycin C], the ED50 in the data set with Sarcoma 180 solid tumour worked out at 8.7 mg/kg. This compound came in with an LD50 at 336 h in “Acute toxicity” of 9.4 mg/kg. Besides, the selectivity ratio in the data set “Acute toxicity” is 0.51; in the data set “in vivo” it was above 0.96.
Turning to `CO[C@@]12[C@H](COC(N)=O)C3=C(C(=O)C(C)=C(NCCSSCCNC(=O)CCC(=O)Oc4c(C)c(C)c5c(c4C)CC[C@@](C)(CCC[C@H](C)CCC[C@H](C)CCCC(C)C)O5)C3=O)N1C[C@@H]1N[C@@H]12` [Compound 16], in the data set on Sarcoma 180 solid tumour, the ED50 worked out at 95.9 mg/kg. In addition, in the data set “Acute toxicity”, the LD50 at 336 h is above 100 mg/kg and the selectivity ratio is above 0.37. Also, the selectivity ratio in the data set “in vivo” was found to be 1.2.
In the same order, the values of `CC1=C(NCCSSCc2cn([C@H]3C[C@H](O)[C@@H](CO)O3)c(=O)[nH]c2=O)C(=O)C2=C(C1=O)N1C[C@H]3[C@H](N3C)[C@]1(O)[C@H]2COC(N)=O` (stereo partly shown) [Compound 40, 7-N-[2-[[(2'-deoxyuridin-5-yl)methyl]dithio]ethyl]mitomycin D] are 104 mg/kg, at least 200 mg/kg, 1.22 and 0.95.
Take `CO[C@@]12[C@H](COC(N)=O)C3=C(C(=O)C(C)=C(NCCSSCCS(=O)(=O)O)C3=O)N1C[C@@H]1N[C@@H]12` [Compound 36, 7-N-[2-[(2-sulfoethyl)dithio]ethyl]mitomycin C]: the ED50 with Sarcoma 180 solid tumour was 7 mg/kg.
Still for that read-out and setting: to `CO[C@@]12[C@H](COC(N)=O)C3=C(C(=O)C(C)=C(NCCSSCCC(=O)N[C@@H](CCCN)C(=O)O)C3=O)N1C[C@@H]1N[C@@H]12` [Compound 22, 7-N-[2-[[2-[[(1S)-4-amino-1-carboxybutyl]carbamoyl]ethyl]dithio]ethyl]mitomycin C] belongs 5 mg/kg.
With `CO[C@@]12[C@H](COC(N)=O)C3=C(C(=O)C(C)=C(NCCSSCCNC(=O)[C@@H]4CCCN4)C3=O)N1C[C@@H]1N[C@@H]12` [Compound 13, 7-N-[2-[[2-(L-prolylamino)ethyl]dithio]ethyl]mitomycin C], the ED50 with Sarcoma 180 solid tumour is 12.2 mg/kg. Further, in “Acute toxicity”, the LD50 at 336 h was 30 mg/kg and the selectivity ratio was found to be 1.17. In addition, the selectivity ratio in the data set “in vivo” was found to be 2.3.
Take `CCOC(=O)CNC(=O)C(C)SSCCNC1=C(C)C(=O)C2=C(C1=O)[C@@H](COC(N)=O)[C@@]1(OC)[C@H]3N[C@H]3CN21` (stereo partly shown) [Compound 30, 7-N-[2-[[1-[[(ethoxycarbonyl)methyl]carbamoyl]ethyl]dithio]ethyl]mitomycin C]: the ED50 in the data set on Sarcoma 180 solid tumour came to 10.3 mg/kg.
